Results on eleven compounds are retold here after patent US10294230B2, “3,3-difluoropiperidine carbamate heterocyclic compounds as NR2B NMDA receptor antagonists” (Rugen Holdings (Cayman) Limited, priority 2015, dated 2019).

Data set [1] deals with NR2B receptor (Rattus norvegicus (Rat), UniProt P35439+Q00960). As to the kind of experiment: [3H] (E)-N1-(2-methoxybenzyl)-cinnamidine radioligand binding, rat brain membranes. Particulars: for pKi: read-out: Ki at the NR2B receptor high affinity site. How it is done:
(§1) This example describes NMDA receptor binding assays using two different radioligands, [^3H] […] An established binding assay using the non-selective NMDA receptor ligand [^3H] […] The binding assay method using the NR2B selective receptor ligand [^3H] […] This assay serves as a selective measure of NR2B receptor binding activity in native rat brain receptors. Briefly, the brains of Male Wistar rats were homogenized (Polytron) before centrifugation at 40,000×g for 15 minutes at 4° C. After 2 washes, the final pellet was homogenized and stored at −80° C. The protein concentration was determined by Bradford assay.
[^3H] […] Thus, using [^3H]
(§2) Test compounds were solubilized at 10 mM in DMSO. Then the dilutions were performed with a constant solvent concentration (1% DMSO) in the assay.
(§3) After incubation for 4.5 h at room temperature, the assays were filtered on GF/B filters pretreated with 0.3% (v/v) PEI with a Brandel system for [^3H] […] The experiment was performed in duplicate (n=2).

Data set [2] concerns NMDA receptor. As to the kind of experiment: [3H] MK-801 radioligand binding, rat brain membranes. Particulars: 2 nM [3H] MK-801. As for the experimental part:
as §1, §2, §3

The target in data set [3] is CYP2D6 (Homo sapiens (Human), UniProt P10635). As to the kind of experiment: CYP P450 enzyme inhibition, pooled human liver microsome. To be noted: pooled HLM, dextromethorphan 5 μM. The format is in vitro ADME. For orientation: Liver microsomes are a subcellular fraction often used to study metabolism.
Chain of CYP2D6 (P10635 whole entry): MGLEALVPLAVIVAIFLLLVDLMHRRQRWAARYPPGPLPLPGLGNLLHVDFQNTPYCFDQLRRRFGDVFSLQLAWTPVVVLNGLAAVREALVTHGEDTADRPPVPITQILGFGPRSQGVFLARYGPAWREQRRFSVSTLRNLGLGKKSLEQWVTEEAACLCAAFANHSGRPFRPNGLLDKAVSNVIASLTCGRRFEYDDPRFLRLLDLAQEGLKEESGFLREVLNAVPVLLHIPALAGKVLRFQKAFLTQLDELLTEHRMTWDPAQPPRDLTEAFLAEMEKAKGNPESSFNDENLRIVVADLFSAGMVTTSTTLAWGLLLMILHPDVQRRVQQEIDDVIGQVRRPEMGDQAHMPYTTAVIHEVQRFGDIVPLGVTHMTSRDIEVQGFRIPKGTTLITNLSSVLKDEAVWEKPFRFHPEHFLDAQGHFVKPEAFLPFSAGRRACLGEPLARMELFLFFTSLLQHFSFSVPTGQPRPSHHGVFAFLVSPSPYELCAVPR
Method: Those CYP isoforms and their corresponding probe substrates are as follows: CYP1A2 (phenacetin, 30 μM), CYP2C9 (tolutamide, 100 μM), CYP2C19 (S-mephenytoin, 40 μM), CYP2D6 (dextromethorphan, 5 μM) and CYP3A4 (midazolam, 1 μM). All probe substrates were used at concentrations near or below their Kms. For experiment, a reaction mixture of test compound at 10 μM or in serial dilution, CYP probe substrate described above and 0.2 mg/mL pooled HLM in phosphate buffer, pH 7.4 in a final volume of 200 μL was pre-incubated at 37° C. for 10 minutes in triplicate. The reaction was initiated by addition of NADPH at final concentration of 1 mM. The reaction was terminated after 10 minutes (CYP1A2, CYP2D6 and CYP3A4) or 30 minutes (CYP2C9 and CYP2C19) by addition of 100 μL ice-cold acetonitrile with internal standard (IS). The samples were then centrifuged at 13,000 rpm and the supernatants were injected to LC-MS/MS (Agilent Technologies) to quantify the concentration of the specific metabolites of the probe substrates formed by individual CYP450 isoforms. The inhibition ratio is calculated as: (Mt−M0)/Mwater×100% in which Mt and M0 represent the concentrations of the specific probe substrate metabolite, which was formed by individual CYP450 isoform, at the beginning and end of the reaction in the presence of test compound; while Mwater represents the concentration of the specific metabolite at the end of the reaction in the absence of test compound. Test compound concentration-dependent response data experiments performed in triplicate.
Data set [4] addresses hERG channel (Homo sapiens (Human), UniProt Q12809). As to the kind of experiment: hERG channel inhibition, whole cell patch clamp in HEK293 cells. The format is cell-based. Particulars: for pIC50: HEK293, whole cell patch clamp.
Method: The assay was performed on hERG channel stably expressed in HEK293 cells. The cells were cultured at 37° C. in a humidified CO2 incubator in the growth medium consisting of DMEM, 10% fetal bovine serum and antibiotics. Prior to the assay, the cells were seeded onto a 12 mm PDL-coated glass coverslip and cultured in a 35 mm Petri dish. After 16 to 40 hr culture, the cover slip was transferred into the chamber of OctaFlow perfusion system (ALA Instrument) and under a constant flow of extracellular solution (140 mM NaCl, 4 mM KCl, 1 mM MgCl2, 2 mM CaCl2, 10 mM HEPES, 10 mM D-glucose, pH 7.35, osmolarity 290). Whole cell patch clamping was performed with a glass micropipette filled with intracellular solution (120 mM KCl, 1.75 mM MgCl2, 5.4 mM CaCl2, 10 mM HEPES, 10 mM EGTA, and 4 mM ATP-K2, PH 7.2, osmolarity 310). Giga-seal was maintained during the test. The voltage control and current measurement were carried out using Axon amplifier 700B, Digidata 1440A and CLAMPEX10 software (Molecular Devices). Whole-cell hERG currents were recorded following the Petroski protocol: the cell was held at −80 mV, and the voltage step jumped from −80 to 30 mV and stay for 2 sec with a 20 ms prepulse at −40 mV. After depolarization, the voltage was decreased to −40 mV and stay for 2 sec, and returned back to −80 mV. Test compound was applied by quartz capillary tubes tip (200 μm inner diameter), and the flow rate was controlled at 2-3 ml/min with OctaFlow perfusion system. Different concentrations of the compound were applied to the cells for 5 min and the hERG current was measured three times before, during and after compound treatment. The data were analyzed using Clampfit 10 software (Molecular Devices) to generate IC50 values.
Data set [5] deals with human NR1/NR2B (Homo sapiens (Human), UniProt Q05586+Q13224). As to the kind of experiment: NR2B antagonist activity, Fluo-4 calcium influx in HEK293 cells. The data set is classed as cell-based. How it is done: (§4) HEK293 cell lines stably expressing cloned human NR1/NR2B and NR1/NR2A, respectively, were established according to standard previously described methods (Hansen et al., Comb. Chem High Throughput Screen. 11:304, 2008). Activation of the NR2A or NR2B subtype of NMDA receptor with glutamate as an agonist and glycine co-agonist on these cells results in calcium influx, which can be monitored with fluorescent indicator Fluo-4.
Chain of human NR1/NR2B (Q13224 27-1484, other chains not shown): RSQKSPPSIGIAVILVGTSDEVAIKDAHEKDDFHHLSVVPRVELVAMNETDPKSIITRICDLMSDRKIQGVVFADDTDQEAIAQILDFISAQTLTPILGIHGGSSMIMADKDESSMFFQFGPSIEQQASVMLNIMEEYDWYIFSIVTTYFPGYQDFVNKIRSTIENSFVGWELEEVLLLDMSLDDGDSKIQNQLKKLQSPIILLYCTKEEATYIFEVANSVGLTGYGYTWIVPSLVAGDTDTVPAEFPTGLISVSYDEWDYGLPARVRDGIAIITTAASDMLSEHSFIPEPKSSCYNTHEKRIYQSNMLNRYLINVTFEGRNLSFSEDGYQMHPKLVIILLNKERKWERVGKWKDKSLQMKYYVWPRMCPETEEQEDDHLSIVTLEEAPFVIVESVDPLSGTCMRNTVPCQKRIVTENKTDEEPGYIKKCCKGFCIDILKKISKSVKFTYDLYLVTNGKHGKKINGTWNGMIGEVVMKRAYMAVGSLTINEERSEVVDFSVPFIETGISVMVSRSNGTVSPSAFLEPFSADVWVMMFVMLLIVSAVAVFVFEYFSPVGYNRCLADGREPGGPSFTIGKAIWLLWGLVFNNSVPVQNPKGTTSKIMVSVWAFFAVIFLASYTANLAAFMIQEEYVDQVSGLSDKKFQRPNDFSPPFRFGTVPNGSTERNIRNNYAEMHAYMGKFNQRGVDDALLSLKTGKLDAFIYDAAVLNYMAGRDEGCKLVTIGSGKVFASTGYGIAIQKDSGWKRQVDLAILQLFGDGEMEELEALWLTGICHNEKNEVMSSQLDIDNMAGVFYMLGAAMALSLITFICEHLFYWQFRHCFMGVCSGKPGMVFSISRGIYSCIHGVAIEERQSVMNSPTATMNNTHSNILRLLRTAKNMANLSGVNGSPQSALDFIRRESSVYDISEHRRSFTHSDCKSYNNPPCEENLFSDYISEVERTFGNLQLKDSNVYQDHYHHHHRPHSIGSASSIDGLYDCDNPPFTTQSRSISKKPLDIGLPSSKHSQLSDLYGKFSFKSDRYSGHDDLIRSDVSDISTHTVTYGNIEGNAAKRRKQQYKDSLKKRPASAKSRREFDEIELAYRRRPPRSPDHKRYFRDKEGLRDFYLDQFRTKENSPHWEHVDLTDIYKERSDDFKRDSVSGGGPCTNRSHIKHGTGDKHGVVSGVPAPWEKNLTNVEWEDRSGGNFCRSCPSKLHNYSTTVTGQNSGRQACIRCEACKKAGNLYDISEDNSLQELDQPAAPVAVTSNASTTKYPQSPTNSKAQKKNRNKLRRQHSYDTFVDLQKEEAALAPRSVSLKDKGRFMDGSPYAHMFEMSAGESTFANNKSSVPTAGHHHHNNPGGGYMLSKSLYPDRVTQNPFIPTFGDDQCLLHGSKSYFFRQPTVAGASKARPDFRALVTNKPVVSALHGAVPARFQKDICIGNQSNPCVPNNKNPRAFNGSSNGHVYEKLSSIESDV
(§5) For experiments, the cells were seeded onto poly-D-lysine-coated 96-well black plates with clear bottom (Corning) at a density of ˜50,000 cells/well. After overnight culture, the growth medium was removed from the wells and the cells were incubated at 37° C. for 60 min in Hanks buffer containing 4 μM fluo-4-AM (Invitrogen) and 0.1% bovine serum albumin (BSA). After dye-loading, the cells were washed three times with Hanks buffer and incubated for 10 min at room temperature with various concentrations of test compounds prepared in Hanks buffer with 0.1% BSA. The cell plates were placed onto FDSS pCell fluorescence reader (Hamamatsu). After 20 sec reading of background fluorescence, agonist glutamate at final 100 μM and co-agonist glycine at final 50 μM were added to the cells to activate the receptor, and the resulting fluorescence changes were recorded and quantified. Based on the changes in fluorescence intensity, the pharmacological effect of test compounds were analyzed and the IC50 values derived from a non-linear least squares fitting of the concentration-dependent response to a standard logistic equation using Prism (Graphpad, Inc): Amplitude=Max Amplitude/(1+(IC50/[antagonist])^n).

Data set [6] has as its target human NR1/NR2A (Homo sapiens (Human), UniProt Q05586+Q12879). As to the kind of experiment: NR2A antagonist activity, Fluo-4 calcium influx in HEK293 cells. To be noted: Table 2.1, glutamate 100 μM, glycine 50 μM. The data set is classed as cell-based. How it is done:
as §4, §5

Data set [7] deals with electroconvulsive threshold (tonic convulsions). As to the kind of experiment: Electroconvulsive Threshold Test (ECT). The format is in vivo, rats. Particulars: rats. How it is done:
Test compound E1-8.2 was administered as the free base.
Rats were administered ECS (rectangular current: 0.6 ms pulse width, 1.5 s duration, 200 Hz) via earclip electrodes connected to a constant current shock generator (Ugo Basile: type 7801). Test compounds were administered by oral gavage (p.o.) 1 hour before the test at a dose volume of 5 mL/kg.
Treatment groups of 20 rats were exposed to ECS as follows: The first animal was exposed to 30 mA of ECS. […] (increases of 5 mA) until the first tonic convulsion was observed. Once the first tonic convulsion was observed, the intensity of ECS was decreased by 2 mA for the next animal and then decreased or increased by 2 mA from animal to animal depending on whether the previous animal convulsed or not. If the first animal did convulse (tonic convulsions) within 5 seconds, animal no2 is exposed to 25 mA, etc. . . . (decreases of 5 mA) until the absence of tonic convulsions was observed. At this point, the intensity of ECS was increased by 2 mA for the next animal and then decreased or increased by 2 mA from animal to animal depending on whether the previous animal convulsed or not. The minimum current intensity applied is 5 mA and the maximum 95 mA. The first 5 animals serve to approach threshold current and were not included in the analysis. The results are presented as the mean current intensity administered to the final 15 animals of a group. The test was performed blind. A positive percent change indicates an anticonvulsant effect. A negative percent change indicates a proconvulsant effect. The test substance was evaluated at 4 doses, typically using 0.5% dimethylsulfoxide, 4% hydroxypropyl-b-cyclodextrin water as a vehicle, and administered p.o. 60 minutes before ECS, and compared with a vehicle control group. Diazepam (16 mg/kg p.o.), administered under the same experimental conditions, was used as reference substance. The experiment included 6 groups. Data with the test substance was analyzed by comparing treated groups with vehicle control using one-way ANOVA followed by Dunnett's t tests.

Data set [8] has as its system KCl-induced cortical spreading depression. As to the kind of experiment: Cortical Spreading Depression (CSD), aura phase of migraine model. The format is in vivo. Particulars: rats. How it is done: The cortical spreading depression model is utilized to investigate whether treatment with compounds of the present invention affect electrophysiological and hemodynamic events in a rat model of migraine.
Rats were anesthetized with 5% isoflurane (in 70% N2O and 30% O2; flow 300 ml/min) and placed in a stereotactic frame. […] The rectal temperature was maintained at 37.0±1.0° C. with a homeothermic blanket system. The skin was opened by a medial incision and retracted laterally. Three burr holes were drilled under saline cooling over the right hemisphere at the following coordinates (mm from bregma): (1) posterior 4.5, lateral, 2.0 (occipital cortex): KCl application site; (2) posterior 0.5, lateral 2.0 (parietal cortex): LDF recording site; (3) anterior 2, lateral 2 (frontal cortex): DC potential recording site. A laser-Doppler flow probe (Oxyflow, Oxford Optronics, UK) to monitor CBF and an invasive Ag/AgCl electrode for measuring direct current (DC) potential shifts were placed in the parietal and frontal cortex burr holes on the intact dura and in the cortex, respectively. The laser-Doppler flow probe was positioned in an area free of large pial and dural vessels to minimize a large-vessel contribution to the signal. For the DC-potential measurement, a reference electrode was fixed in the neck. Dura overlying the occipital cortex was gently removed and care was taken to avoid bleeding. After surgical preparation, the cortex was allowed to recover for 15 minutes under saline irrigation. A cotton ball (2 mm diameter) soaked with 1M KCl was placed on the pial surface and kept moist by placing 5 μl of KCl solution every 15 minutes. Test compound or vehicle was administered ten (10) minutes prior to CSD initiation. […] The number of KCl-induced CSDs was counted for 2 hours. The CBF and DC-potentials were monitored continuously starting from 5 minutes before KCl exposure.
Test compound E1-1.2 was administered as a mesylate salt (mpk based on molecular weight of the mesylate salt).
The data was collected in Windaq acquisition software (Dataq Instruments, USA) at 20 kHz. The raw data was analyzed in Clampfit program (Axon Instruments, USA). The signals were low pass filtered (cut off range 5-10000 Hz) that CSD episodes in DC and CBF could be confirmed. The following parameters were analyzed: i) the number, duration and amplitude of DC-potentials, and ii) the number and amplitude of CBF events.
Doses were given as milligram per kilogram (mpk). […] Bars represent mean±Standard Error of Mean (SEM), and differences were considered to be statistically significant at the P<0.05 level (n=8, * different from vehicle group). Statistical analysis was performed using StatsDirect statistical software. Differences between groups were analyzed by using 1-way ANOVA and Dunnett's post hoc test.

The mark [9] stands for this setting: Table 2.1, HEK293 human NR1/NR2B, glutamate 100 μM, glycine 50 μM.
Where [10] appears, read: E1-1.2 at various doses, MK-801 1.25 mg/kg.

A word on the pKi: it is the Ki on a negative log10 scale, so that one unit is a factor of ten. What is called pIC50 is −log10 of the IC50, conventionally taken in molar units.

pIC50, pKi: −log10 of the molar value. Read-outs that look alike come from different tables or passages of the source.

Chain of NR2B receptor (Q00960 27-1482, other chains not shown): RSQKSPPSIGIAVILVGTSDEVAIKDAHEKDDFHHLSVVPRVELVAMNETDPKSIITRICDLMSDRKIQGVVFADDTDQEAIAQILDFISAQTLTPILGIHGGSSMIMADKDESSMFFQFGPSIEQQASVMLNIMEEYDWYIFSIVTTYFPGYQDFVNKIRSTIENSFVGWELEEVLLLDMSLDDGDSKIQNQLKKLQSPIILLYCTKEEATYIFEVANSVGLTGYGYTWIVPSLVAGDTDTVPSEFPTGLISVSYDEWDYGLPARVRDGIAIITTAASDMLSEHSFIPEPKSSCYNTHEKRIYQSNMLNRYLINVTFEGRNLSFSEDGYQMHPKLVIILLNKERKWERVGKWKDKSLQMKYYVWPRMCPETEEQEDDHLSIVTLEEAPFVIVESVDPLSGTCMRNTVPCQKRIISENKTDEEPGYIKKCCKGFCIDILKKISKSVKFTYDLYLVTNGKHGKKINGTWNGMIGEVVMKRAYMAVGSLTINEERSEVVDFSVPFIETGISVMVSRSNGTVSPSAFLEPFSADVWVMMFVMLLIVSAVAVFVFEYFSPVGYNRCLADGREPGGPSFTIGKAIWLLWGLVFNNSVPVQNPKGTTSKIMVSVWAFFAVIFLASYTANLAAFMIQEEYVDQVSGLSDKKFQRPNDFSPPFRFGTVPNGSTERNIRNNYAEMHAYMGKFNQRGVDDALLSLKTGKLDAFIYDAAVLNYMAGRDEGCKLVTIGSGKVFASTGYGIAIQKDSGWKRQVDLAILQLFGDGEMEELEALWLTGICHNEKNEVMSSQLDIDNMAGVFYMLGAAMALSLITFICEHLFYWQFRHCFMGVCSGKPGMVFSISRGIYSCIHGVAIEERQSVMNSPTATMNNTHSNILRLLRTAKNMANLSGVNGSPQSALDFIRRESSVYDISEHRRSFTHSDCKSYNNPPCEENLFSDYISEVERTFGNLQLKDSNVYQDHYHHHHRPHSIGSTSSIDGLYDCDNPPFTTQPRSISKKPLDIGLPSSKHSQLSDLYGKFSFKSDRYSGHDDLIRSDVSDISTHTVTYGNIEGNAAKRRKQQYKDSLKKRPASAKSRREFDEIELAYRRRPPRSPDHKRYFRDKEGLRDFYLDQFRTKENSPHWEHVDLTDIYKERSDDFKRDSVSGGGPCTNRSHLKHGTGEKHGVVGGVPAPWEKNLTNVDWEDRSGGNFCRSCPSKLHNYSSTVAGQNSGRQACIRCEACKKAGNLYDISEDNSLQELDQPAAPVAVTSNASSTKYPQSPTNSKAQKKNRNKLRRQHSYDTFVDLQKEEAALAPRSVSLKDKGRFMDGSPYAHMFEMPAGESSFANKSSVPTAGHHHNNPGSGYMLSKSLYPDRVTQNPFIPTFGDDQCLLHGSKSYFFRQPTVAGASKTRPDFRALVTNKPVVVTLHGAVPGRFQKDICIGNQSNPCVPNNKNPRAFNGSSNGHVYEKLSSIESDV
Chain of hERG channel (Q12809 whole entry): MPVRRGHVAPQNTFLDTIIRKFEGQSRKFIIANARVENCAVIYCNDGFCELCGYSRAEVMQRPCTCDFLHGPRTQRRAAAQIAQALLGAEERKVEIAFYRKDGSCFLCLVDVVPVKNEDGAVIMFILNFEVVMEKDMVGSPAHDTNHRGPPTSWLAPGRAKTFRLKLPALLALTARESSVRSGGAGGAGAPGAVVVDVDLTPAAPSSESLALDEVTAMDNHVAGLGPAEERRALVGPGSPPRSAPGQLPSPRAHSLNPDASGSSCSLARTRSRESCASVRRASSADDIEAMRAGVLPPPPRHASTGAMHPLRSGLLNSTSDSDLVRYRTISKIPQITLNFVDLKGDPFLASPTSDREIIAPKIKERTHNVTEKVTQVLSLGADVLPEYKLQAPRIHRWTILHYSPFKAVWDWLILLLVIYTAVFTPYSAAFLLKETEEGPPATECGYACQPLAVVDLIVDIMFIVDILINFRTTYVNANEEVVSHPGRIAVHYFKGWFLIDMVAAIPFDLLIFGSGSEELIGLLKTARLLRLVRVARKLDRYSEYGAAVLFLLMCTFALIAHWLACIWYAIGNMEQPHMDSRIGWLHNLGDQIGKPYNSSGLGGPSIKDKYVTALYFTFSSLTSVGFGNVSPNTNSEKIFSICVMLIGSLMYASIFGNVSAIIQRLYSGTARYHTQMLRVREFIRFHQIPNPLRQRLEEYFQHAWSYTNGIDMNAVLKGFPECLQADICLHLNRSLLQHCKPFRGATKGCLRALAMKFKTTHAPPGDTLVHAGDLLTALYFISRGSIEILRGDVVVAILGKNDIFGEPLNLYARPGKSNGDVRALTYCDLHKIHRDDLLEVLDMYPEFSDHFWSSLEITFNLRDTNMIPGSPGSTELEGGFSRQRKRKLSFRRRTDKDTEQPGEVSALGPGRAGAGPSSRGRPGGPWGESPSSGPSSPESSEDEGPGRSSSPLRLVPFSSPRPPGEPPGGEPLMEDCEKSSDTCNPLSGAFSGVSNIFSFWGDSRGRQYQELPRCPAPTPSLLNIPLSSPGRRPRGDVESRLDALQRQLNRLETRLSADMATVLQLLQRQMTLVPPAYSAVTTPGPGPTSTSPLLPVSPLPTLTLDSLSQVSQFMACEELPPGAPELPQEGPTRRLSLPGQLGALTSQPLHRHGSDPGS

Take `COc1ccccc1CNC(=N)/C=C/c1ccccc1` [(E)-N1-(2-methoxybenzyl)-cinnamidine, reference compound]: the pKi in data set [1] (rat brain membranes, [3H] (E)-N1-(2-methoxybenzyl)-cinnamidine) was 9.74.

For the compound `CCc1ccc(COC(=O)N2CC[C@H](CNc3nccn4cnnc34)C(F)(F)C2)cc1` [Compound E1-1.5, R-4-ethylbenzyl 4-(([1,2,4]triazolo[4,3-a]pyrazin-8-ylamino)methyl)-3,3-difluoropiperidine-1-carboxylate], the “partial effect on [3H] MK-801 binding” value in data set [2] was found to be 48%. In data set [1] (rat brain membranes), the “displacement of [3H] (E)-N1-(2-methoxybenzyl)-cinnamidine at the NR2B receptor high affinity site” value (shortened to “displacement of [3H]”) is listed as 97%.

As for `Cc1ccc(COC(=O)N2CC[C@H](CNc3cncc4nncn34)C(F)(F)C2)cc1` [Compound E1-2.2, R-4-methylbenzyl 4-(([1,2,4]triazolo[4,3-a]pyrazin-5-ylamino)methyl)-3,3-difluoropiperidine-1-carboxylate], the “CYP2D6 @ 10 μM (%)” value in data set [3] stood at 18%. Also, the “hERG @ 10 μM (%)” value in data set [4] turned out to be 32%. In addition, the pIC50 in data set [5] (setting [9]) was 7.98; in data set [5] (Table 2.2), 7.98; in data set [5] (Table 2.3) it was 7.98; in data set [6] it was less than 5.00.

On to `Cc1ccc(COC(=O)N2CC[C@H](CNc3ncc4cn[nH]c4n3)C(F)(F)C2)cc1` [Compound E1-8.2, (+)-R-4-methylbenzyl-4-((1H-pyrazolo[3,4-d]pyrimidin-6-ylamino)methyl)-3,3-difluoropiperidine-1-carboxylate], for which the “partial effect on [3H] MK-801 binding” value in data set [2] was found to be 33%. Moreover, the “CYP2D6 @ 10 μM (%)” value in data set [3] came out at 83%. Moreover, the pIC50 in data set [3] was 5.23; in data set [4], 5.17; in data set [5] (setting [9]) it was 7.77; in data set [5] (Table 2.2), 7.77; in data set [5] (Table 2.3), 7.77. Besides, the “electroconvulsive threshold, pro-/anticonvulsant activity” value (from here on “electroconvulsive threshold”) in data set [7] (0.5 and 2 mpk p.o., free base) is on record as “modest proconvulsant activity”; in data set [7] (10 and 20 mpk p.o., free base) it was “anticonvulsant activity”. For the same compound, the “displacement of [3H]” value in data set [1] (rat brain membranes) is 95%. Further, the “hERG @ 10 μM (%)” value in data set [4] is on record as 57%.

Turning to `Cc1ccc(COC(=O)N2CC[C@H](CNc3nc4ccccn4n3)C(F)(F)C2)cc1` [Compound E1-9.2, (+)-R-4-methylbenzyl 4-(([1,2,4]triazolo[1,5-a]pyridin-2-ylamino)methyl)-3,3-difluoropiperidine-1-carboxylate], in data set [2], the “partial effect on [3H] MK-801 binding” value was 34%. Besides, the “CYP2D6 @ 10 μM (%)” value in data set [3] is given as 14%. Moreover, the “displacement of [3H]” value in data set [1] (rat brain membranes) is listed as 97%. Also, in data set [1], the pKi was 7.95. Moreover, in data set [4], the “hERG @ 10 μM (%)” value was 38%. For the same compound, the pIC50 in data set [5] (setting [9]), in data set [5] (Table 2.2) and in data set [5] (Table 2.3) was 7.32 throughout.

Turning to `Cc1ccc(COC(=O)N2CC[C@H](CNc3ncccn3)C(F)(F)C2)cc1` [Compound E1-22.2, (+)-R-4-methylbenzyl 3,3-difluoro-4-((pyrimidin-2-ylamino)methyl)-piperidine-1-carboxylate], the negative logarithm of the IC50 (pIC50) in data set [4] was less than 5.00.

Take `Cc1ccc(COC(=O)N2CC[C@@H](CNc3nccn4cnnc34)C(F)(F)C2)cc1` [Compound E2-1.2, (−)-S-4-methylbenzyl 4-(([1,2,4]triazolo[4,3-a]pyrazin-8-ylamino)methyl)-3,3-difluoropiperidine-1-carboxylate]: the “partial effect on [3H] MK-801 binding” value in data set [2] amounted to 36%. Moreover, in data set [1] (rat brain membranes), the “displacement of [3H]” value is recorded as 98%. Further, the pKi in data set [1] was 7.13. Also, the “hERG @ 10 μM (%)” value in data set [4] amounted to 22%. Besides, the pIC50 is 6.81 in data set [5] (setting [9]), 6.81 in data set [5] (Table 2.2), 6.81 in data set [5] (Table 2.3) and less than 5.00 in data set [6].

As to `FC(F)(F)c1ccc(C(F)(F)CN2CCC(Nc3ncnc4[nH]ncc34)CC2)cc1` [LX-1, reference compound], the “CYP2D6 @ 10 μM (%)” value in data set [3] is 93%.

In the case of `CN1C(=O)CN=C(c2ccccc2)c2cc(Cl)ccc21` [diazepam, reference compound], the “electroconvulsive threshold” value in data set [7] (16 mpk p.o.) was “expected anticonvulsant activity”.

For the compound `Cn1c(=O)c2[nH]cnc2n(C)c1=O` [theophylline, reference compound], the “electroconvulsive threshold” value in data set [7] (128 mpk p.o.) is “expected proconvulsant activity”.

Regarding MK-801 [reference compound], the “number of CBF events vs vehicle” value in data set [8] (E1-1.2 at 10 mg/kg, MK-801 at 1.25 mg/kg) is on record as “decreased”. Further, in data set [8] (setting [10]), the “amplitude of DC potentials vs vehicle” value was “not statistically different” and the “duration of DC potentials vs vehicle” value is “increased”.
